Assay results: US20260262643A1, “HERBICIDAL BENZOXAZINES” (FMC CORPORATION, priority 2022, published 2026)

Legend:
oat, wild [1] = assay: Test C preemergence; assay type: in vivo, Avena fatua; settings: for Oat, Wild plant response rating: preemergence, 0 to 100 scale (0 no effect, 100 complete control)
How it was run: (§1)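 Pre: seeds in loam/sand, directed soil spray. Post: 1–2 leaf plants, 2–10 cm. Cmpd in non-phytotoxic solvent + surfactant. Greenhouse 10 d; visual rating vs untreated, 0 = none, 100 = complete control.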

ragweed [2] = assay: Test C preemergence; assay type: in vivo, Ambrosia artemisiifolia; settings: for Ragweed plant response rating: preemergence, 0 to 100 scale (0 no effect, 100 complete control)
How it was run: as §1

ducksalad = assay: Test D flooded paddy test; assay type: in vivo, Heteranthera limosa; settings: 250 g ai/ha, applied to paddy water, visual rating after 13 to 14 days, scale 0 to 100 (0 no effect, 100 complete control)
How it was run: (§2)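 2-leaf plants; flood 3 cm above soil; compound dosed into paddy water; greenhouse 13–14 d; visual rating vs controls, 0–100 (100 = complete control); dash = not tested.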

oat, wild [3] = assay: Test C postemergence; assay type: in vivo, Avena fatua; settings: 10 days, 0 to 100 scale (0 no effect, 100 complete control)
How it was run: as §1

ryegrass, Italian [4] = assay: Test C preemergence; assay type: in vivo, Lolium multiflorum; settings: preemergence, 0 to 100 scale (0 no effect, 100 complete control)
How it was run: as §1

blackgrass [5] = assay: Test C preemergence; assay type: in vivo, Alopecurus myosuroides; settings: for Blackgrass plant response rating: preemergence, 0 to 100 scale (0 no effect, 100 complete control)
How it was run: as §1

pigweed, palmer [6] = assay: Test C postemergence; assay type: in vivo, Amaranthus palmeri; settings: 10 days, 0 to 100 scale (0 no effect, 100 complete control)
How it was run: as §1

kochia [7] = assay: Test C postemergence; assay type: in vivo, Bassia scoparia; settings: 10 days, 0 to 100 scale (0 no effect, 100 complete control)
How it was run: as §1

green foxtail [8] = assay: Test C preemergence; assay type: in vivo, Setaria viridis; settings: for Foxtail, Green plant response rating: preemergence, 0 to 100 scale (0 no effect, 100 complete control)
How it was run: as §1

galium = assay: Test C postemergence; assay type: in vivo, Galium aparine; settings: 10 days, 0 to 100 scale (0 no effect, 100 complete control)
How it was run: as §1

barnyardgrass [9] = assay: Test C preemergence; assay type: in vivo, Echinochloa crusgalli; settings: for Barnyardgrass plant response rating: preemergence, 0 to 100 scale (0 no effect, 100 complete control)
How it was run: as §1

barnyardgrass [10] = assay: Test D flooded paddy test; assay type: in vivo, Echinochloa crus-galli; settings: 250 g ai/ha, applied to paddy water, visual rating after 13 to 14 days, scale 0 to 100 (0 no effect, 100 complete control)
How it was run: as §2

soybean [11] = assay: Test C postemergence; assay type: in vivo, Glycine max; settings: 10 days, 0 to 100 scale (0 no effect, 100 complete control)
How it was run: as §1

ryegrass, Italian [12] = assay: Test C postemergence; assay type: in vivo, Lolium multiflorum; settings: 10 days, 0 to 100 scale (0 no effect, 100 complete control)
How it was run: as §1

green foxtail [13] = assay: Test C postemergence; assay type: in vivo, Setaria viridis; settings: 10 days, 0 to 100 scale (0 no effect, 100 complete control)
How it was run: as §1

sedge, umbrella = assay: Test D flooded paddy test; assay type: in vivo, Cyperus difformis; settings: 250 g ai/ha, applied to paddy water, visual rating after 13 to 14 days, scale 0 to 100 (0 no effect, 100 complete control)
How it was run: as §2

wheat [14] = assay: Test C preemergence; assay type: in vivo, Triticum aestivum; settings: for Wheat plant response rating: preemergence, 0 to 100 scale (0 no effect, 100 complete control)
How it was run: as §1

corn [15] = assay: Test C preemergence; assay type: in vivo, Zea mays; settings: for Corn plant response rating: preemergence, 0 to 100 scale (0 no effect, 100 complete control)
How it was run: as §1

horseweed = assay: Test C postemergence; assay type: in vivo, Erigeron canadensis; settings: 10 days, 0 to 100 scale (0 no effect, 100 complete control)
How it was run: as §1

rice = assay: Test D flooded paddy test; assay type: in vivo, Oryza sativa; settings: 250 g ai/ha, applied to paddy water, visual rating after 13 to 14 days, scale 0 to 100 (0 no effect, 100 complete control)
How it was run: as §2

ragweed [16] = assay: Test C postemergence; assay type: in vivo, Ambrosia artemisiifolia; settings: 10 days, 0 to 100 scale (0 no effect, 100 complete control)
How it was run: as §1

corn [17] = assay: Test C postemergence; assay type: in vivo, Zea mays; settings: 10 days, 0 to 100 scale (0 no effect, 100 complete control)
How it was run: as §1

blackgrass [18] = assay: Test C postemergence; assay type: in vivo, Alopecurus myosuroides; settings: 10 days, 0 to 100 scale (0 no effect, 100 complete control)
How it was run: as §1

kochia [19] = assay: Test C preemergence; assay type: in vivo, Bassia scoparia; settings: for Kochia plant response rating: preemergence, 0 to 100 scale (0 no effect, 100 complete control)
How it was run: as §1

pigweed, palmer [20] = assay: Test C preemergence; assay type: in vivo, Amaranthus palmeri; settings: preemergence, 0 to 100 scale (0 no effect, 100 complete control)
How it was run: as §1

soybean [21] = assay: Test C preemergence; assay type: in vivo, Glycine max; settings: for Soybean plant response rating: preemergence, 0 to 100 scale (0 no effect, 100 complete control)
How it was run: as §1

barnyardgrass [22] = assay: Test C postemergence; assay type: in vivo, Echinochloa crusgalli; settings: 10 days, 0 to 100 scale (0 no effect, 100 complete control)
How it was run: as §1

wheat [23] = assay: Test C postemergence; assay type: in vivo, Triticum aestivum; settings: 10 days, 0 to 100 scale (0 no effect, 100 complete control)
How it was run: as §1

[24] = Preemergence, 125 g ai/ha, 0 to 100 scale, 0 no effect, 100 complete control

COC[C@H]1CN(C(=O)c2cc(-n3cnc(C(C)C)n3)ccc2OC)c2cccc(Cl)c2O1 [Compound 314]
Oat, Wild plant response rating (oat, wild [1]; 500 g ai/ha): 80
Oat, Wild plant response rating (oat, wild [1]; Test C, 125 g ai/ha): 60
Ragweed plant response rating (ragweed [2]; 500 g ai/ha): 70
Ragweed plant response rating (ragweed [2]; Test C, 125 g ai/ha): 50
Plant response rating, Ducksalad (Flood) (ducksalad): 85
Plant response rating, Oat, Wild (oat, wild [3]; 500 g ai/ha, postemergence): 40
Plant response rating, Oat, Wild (oat, wild [3]; Postemergence, 125 g ai/ha): 40
Ryegrass, Italian plant response rating (ryegrass, Italian [4]; 500 g ai/ha): 100
Ryegrass, Italian plant response rating (ryegrass, Italian [4]; Test C, 125 g ai/ha): 100
Blackgrass plant response rating (blackgrass [5]; 500 g ai/ha): 70
Blackgrass plant response rating (blackgrass [5]; Test C, 125 g ai/ha): 20
Plant response rating, Pigweed, Palmer (pigweed, palmer [6]; 500 g ai/ha, postemergence): 90
Plant response rating, Pigweed, Palmer (pigweed, palmer [6]; Postemergence, 125 g ai/ha): 60
Plant response rating, Kochia (kochia [7]; 500 g ai/ha, postemergence): 90
Plant response rating, Kochia (kochia [7]; Postemergence, 125 g ai/ha): 90
Foxtail, Green plant response rating (green foxtail [8]; 500 g ai/ha): 100
Foxtail, Green plant response rating (green foxtail [8]; Test C, 125 g ai/ha): 100
Plant response rating, Galium (galium; 500 g ai/ha, postemergence): 100
Plant response rating, Galium (galium; Postemergence, 125 g ai/ha): 100
Barnyardgrass plant response rating (barnyardgrass [9]; 500 g ai/ha): 100
Barnyardgrass plant response rating (barnyardgrass [9]; Test C, 125 g ai/ha): 70
Plant response rating, Barnyardgrass (Flood) (barnyardgrass [10]): 15
Plant response rating, Soybean (soybean [11]; 500 g ai/ha, postemergence): 100
Plant response rating, Soybean (soybean [11]; Postemergence, 125 g ai/ha): 100
Plant response rating, Ryegrass, Italian (ryegrass, Italian [12]; 500 g ai/ha, postemergence): 90
Plant response rating, Ryegrass, Italian (ryegrass, Italian [12]; Postemergence, 125 g ai/ha): 80
Plant response rating, Foxtail, Green (green foxtail [13]; 500 g ai/ha, postemergence): 90
Plant response rating, Foxtail, Green (green foxtail [13]; Postemergence, 125 g ai/ha): 60
Plant response rating, Sedge, Umbrella (Flood) (sedge, umbrella): 100
Wheat plant response rating (wheat [14]; 500 g ai/ha): 40
Wheat plant response rating (wheat [14]; Test C, 125 g ai/ha): 20
Corn plant response rating (corn [15]; 500 g ai/ha): 0
Corn plant response rating (corn [15]; Test C, 125 g ai/ha): 0
Plant response rating, Horseweed (horseweed; 500 g ai/ha, postemergence): 90
Plant response rating, Horseweed (horseweed; Postemergence, 125 g ai/ha): 100
Plant response rating, Rice (Flood) (rice): 15
Plant response rating, Ragweed (ragweed [16]; 500 g ai/ha, postemergence): 90
Plant response rating, Ragweed (ragweed [16]; Postemergence, 125 g ai/ha): 80
Plant response rating, Corn (corn [17]; 500 g ai/ha, postemergence): 90
Plant response rating, Corn (corn [17]; Postemergence, 125 g ai/ha): 80
Plant response rating, Blackgrass (blackgrass [18]; 500 g ai/ha, postemergence): 100
Plant response rating, Blackgrass (blackgrass [18]; Postemergence, 125 g ai/ha): 80
Kochia plant response rating (kochia [19]; 500 g ai/ha): 100
Kochia plant response rating (kochia [19]; Test C, 125 g ai/ha): 90
Pigweed, Palmer plant response rating (pigweed, palmer [20]; 500 g ai/ha): 100
Pigweed, Palmer plant response rating (pigweed, palmer [20]; Test C, 125 g ai/ha): 100
Soybean plant response rating (soybean [21]; 500 g ai/ha): 90
Soybean plant response rating (soybean [21]; Test C, 125 g ai/ha): 40
Plant response rating, Barnyardgrass (barnyardgrass [22]; 500 g ai/ha, postemergence): 60
Plant response rating, Barnyardgrass (barnyardgrass [22]; Postemergence, 125 g ai/ha): 30
Plant response rating, Wheat (wheat [23]; 500 g ai/ha, postemergence): 30
Plant response rating, Wheat (wheat [23]; Postemergence, 125 g ai/ha): 20

Cc1ncc(-c2cccc(C(=O)N3C[C@H](C)Oc4c(Cl)cccc43)c2)o1 [Compound 352]
Oat, Wild plant response rating (oat, wild [1]; 500 g ai/ha): 0
Plant response rating, Oat, Wild (oat, wild [1]; [24]): 0
Ragweed plant response rating (ragweed [2]; 500 g ai/ha): 0
Plant response rating, Ragweed (ragweed [2]; [24]): 40
Plant response rating, Ducksalad (Flood) (ducksalad): 0
Plant response rating, Oat, Wild (oat, wild [3]; 500 g ai/ha, postemergence): 0
Plant response rating, Oat, Wild (oat, wild [3]; Postemergence, 125 g ai/ha): 0
Ryegrass, Italian plant response rating (ryegrass, Italian [4]; 500 g ai/ha): 40
Blackgrass plant response rating (blackgrass [5]; 500 g ai/ha): 0
Plant response rating, Blackgrass (blackgrass [5]; [24]): 0
Plant response rating, Pigweed, Palmer (pigweed, palmer [6]; 500 g ai/ha, postemergence): 20
Plant response rating, Kochia (kochia [7]; 500 g ai/ha, postemergence): 50
Plant response rating, Kochia (kochia [7]; Postemergence, 125 g ai/ha): 40
Foxtail, Green plant response rating (green foxtail [8]; 500 g ai/ha): 40
Plant response rating, Foxtail, Green (green foxtail [8]; [24]): 0
Plant response rating, Galium (galium; 500 g ai/ha, postemergence): 50
Plant response rating, Galium (galium; Postemergence, 125 g ai/ha): 60
Barnyardgrass plant response rating (barnyardgrass [9]; 500 g ai/ha): 0
Plant response rating, Barnyardgrass (barnyardgrass [9]; [24]): 0
Plant response rating, Barnyardgrass (Flood) (barnyardgrass [10]): 0
Plant response rating, Soybean (soybean [11]; 500 g ai/ha, postemergence): 90
Plant response rating, Soybean (soybean [11]; Postemergence, 125 g ai/ha): 80
Plant response rating, Ryegrass, Italian (ryegrass, Italian [12]; 500 g ai/ha, postemergence): 10
Plant response rating, Ryegrass, Italian (ryegrass, Italian [12]; Postemergence, 125 g ai/ha): 10
Plant response rating, Foxtail, Green (green foxtail [13]; 500 g ai/ha, postemergence): 10
Plant response rating, Foxtail, Green (green foxtail [13]; Postemergence, 125 g ai/ha): 20
Plant response rating, Sedge, Umbrella (Flood) (sedge, umbrella): 0
Wheat plant response rating (wheat [14]; 500 g ai/ha): 0
Plant response rating, Wheat (wheat [14]; [24]): 0
Corn plant response rating (corn [15]; 500 g ai/ha): 0
Plant response rating, Corn (corn [15]; [24]): 0
Plant response rating, Horseweed (horseweed; 500 g ai/ha, postemergence): 10
Plant response rating, Horseweed (horseweed; Postemergence, 125 g ai/ha): 0
Plant response rating, Rice (Flood) (rice): 0
Plant response rating, Ragweed (ragweed [16]; 500 g ai/ha, postemergence): 20
Plant response rating, Ragweed (ragweed [16]; Postemergence, 125 g ai/ha): 20
Plant response rating, Corn (corn [17]; 500 g ai/ha, postemergence): 0
Plant response rating, Corn (corn [17]; Postemergence, 125 g ai/ha): 0
Plant response rating, Blackgrass (blackgrass [18]; 500 g ai/ha, postemergence): 0
Plant response rating, Blackgrass (blackgrass [18]; Postemergence, 125 g ai/ha): 0
Kochia plant response rating (kochia [19]; 500 g ai/ha): 0
Plant response rating, Kochia (kochia [19]; [24]): 0
Pigweed, Palmer plant response rating (pigweed, palmer [20]; 500 g ai/ha): 10
Soybean plant response rating (soybean [21]; 500 g ai/ha): 0
Plant response rating, Soybean (soybean [21]; [24]): 0
Plant response rating, Barnyardgrass (barnyardgrass [22]; 500 g ai/ha, postemergence): 10
Plant response rating, Barnyardgrass (barnyardgrass [22]; Postemergence, 125 g ai/ha): 10
Plant response rating, Wheat (wheat [23]; 500 g ai/ha, postemergence): 10
Plant response rating, Wheat (wheat [23]; Postemergence, 125 g ai/ha): 10
